Data published in US5124327A, “HIV reverse transcriptase” (Merck & Co., Inc., priority 1991, dated 1992).

What was measured:
[1] = molecular target: T1, recombinant HIV reverse transcriptase (HIV RTR) (Human immunodeficiency virus type 1 group M subtype B, UniProt P04585); assay: Reverse transcriptase assay: incorporation of tritiated dGMP into acid-precipitable cDNA; format: biochemical
T1 construct: recombinant HIV reverse transcriptase (HIV RTR)
Method: The assay measures the incorporation of tritiated deoxyguanosine monophosphate by recombinant HIV reverse transcriptase (HIV RTR) (or other RT) into acid-precipitable cDNA at the Km values of dGTP and poly r(C).oligo d(G)12-18.
Thirty uL of a reaction mixture containing equal volumes of: 500 mM Tris.HCl (pH 8.2), 300 mM MgCl2, 1200 mM KCl, 10 mM DTT, 400 μg/mL poly r(c).oligo d(G) [prepared by dissolving 1.5 mg (25 U) poly r(C).oligo d(G) in 1.5 ml sterile distilled H2 O and diluting to 400 μg/ml], 0.1 μCi/μl [^3 H] dGTP, 160 μM dGTP, was added to 10 μl sterile distilled H2 O, 2.5 μl of potential inhibitor and 10 μL of 5 nM purified HIV RTR in tubes. The mixture was incubated at 37° C. for 45 minutes.
After incubation is complete, the tubes were cooled in ice for 5 minutes. Ice-cold 13% TCA containing 10 mM NaPPi (200 μl) are added and the mixture incubated on ice for 30 minutes. The precipitated cDNA is removed by filtration using presoaked glass filters [TCA, NaPPi ]. The precipitate is then washed with 1N HCl, 10 mM NaPPi. The filter discs are then counted in a scintillation counter.
Under these conditions [dGTP] and poly r(C).oligo d(G)12-18 each are approximately equal to the appropriate Km value. Approximately 5-6,000 cpm of [^3 H] GMP are incorporated into acid-precipitable material. The RT reaction is concentration- and time-dependent. […]

HIV-1 strain IIIb = assay: Inhibition of virus spread in HIV-infected MT-4 cells (p24 antigen); format: cell-based; details: Human immunodeficiency virus 1, IIIB, MT4, 72 h, concentration giving greater than 95% reduction in p24 antigen production relative to untreated controls, 3 days incubation, read-out: cell culture inhibitory concentration (CIC95)
Method: MT cells were infected at Day O at a concentration of 250,000 per ml with a 1:2000 dilution of HIV-1 strain IIIb stock (final 125 pg p24/ml; sufficient to yield ≤1% infected cells on day 1 and 25-100% on day 4). Cells were infected and grown in the following medium: RPMI 1640 (Whittaker BioProducts), 10% inactivated fetal bovine serum, 4 mM glutamine (Gibco Labs) and 1:100 Penicillin-Streptomycin (Gibco Labs).
The mixture was incubated overnight at 37° C. in 5% CO2 atmosphere.
Serial two-fold dilutions of compound were prepared in cell culture medium. At Day 1, aliquots of 125 μl of compound were added to equal volumes of HIV-infected MT-4 cells (50,000 per well) in a 96-well microtiter cell culture plate. Incubation was continued for 3 days at 37° C. in 5% CO2 atmosphere.
Using a multichannel pipettor, the settled cells were resuspended and a 125 μl harvested into a separate microtiter plate. […]
The concentration of HIV p24 antigen was measured by an enzyme immunoassay,described as follows. Aliquots of p24 antigen to be measured were added to microwells coated with a monoclonal antibody specific for HIV core antigen. […]
The cell culture inhibitory concentration (ClC95) for each compound is defined as that concentration which inhibited by greater than 95% the spread of infection, as assessed by a greater than 95% reduction in p24 antigen production relative to untreated controls.

**Q.** What does the source list for `[O-][S+](Cc1[nH]c2ccccc2c1Sc1ccccc1)c1ccccc1` (stereo not drawn) [compound A, 2-Phenylsulfinylmethyl-3-phenylthioindole]?
**A.** IC50 ([1]; [dGTP] and poly r(C).oligo d(G)12-18 at approximately Km, 37° C., 45 minutes, read-out: calculated IC50): ~60 nM; incorporation of tritiated deoxyguanosine monophosphate into acid-precipitable cDNA ([1]; at the Km values of dGTP and poly r(C).oligo d(G)12-18): inhibits this incorporation; IC95 (HIV-1 strain IIIb): ~100 nM
